The values that follow are results of earlier work, collected in US20250034331A1, “POLYESTER URETHANE BIORESORBABLE ELASTOMERS WITH MICROSTRUCTURES FOR TUNABLE DRUG RELEASE AND TUNABLE DEGRADATION” (SOLESIS, INC., priority 2023, published 2025).

The conditions of data set [1]: humans.

Molecules are shown by their SMILES. Bounds are passed on as bounds.

Take `NCCCCCCN` [HDA, hexamethylene diamine]: the time of excretion in data set [1] was not above 10 h.

For the compound `C[C@@H]1C[C@H]2[C@@H]3CCC4=CC(=O)C=C[C@]4(C)[C@@]3(F)[C@@H](O)C[C@]2(C)[C@@]1(O)C(=O)CO` [dexamethasone], the “solubility in PBS” value is “about 75 μg/mL”.
